Reference: ChEMBL document CHEMBL1152705, “Synthesis and promotion angiogenesis effect of chrysin derivatives coupled to NO donors” (Bioorg Med Chem Lett, 2009)
Active and inactive are the calls of the source. No cut-off for these calls is given here.

Experiments:
Chorioallantoic membrane = experiment: Angiogenic activity in chick embryo chorioallantoic membrane at 10 uL/egg after 2 days; type: functional, tissue-based; details: Gallus gallus
Homo sapiens = species: Homo sapiens; experiment: Angiogenic activity in HUVEC12 assessed as induction of cell proliferation at 10 uM after 24 hrs by MTT assay; type: functional

Structure (SMILES)	Activity (Chorioallantoic membrane)	Activity (Homo sapiens)
O=c1cc(-c2ccccc2)oc2cc(OCCO[N+](=O)[O-])cc(O)c12	Active	Active
O=c1cc(-c2ccccc2)oc2cc(OCCCCO[N+](=O)[O-])cc(O)c12	Active	Active
O=c1cc(-c2ccccc2)oc2cc(O)cc(O)c12	–	Active
O=c1cc(-c2ccccc2)oc2cc(OCCCCCCO[N+](=O)[O-])cc(O)c12	Active	Active
